# Experimental data published in patent US12077503B2, “Substituted cyclic amides and their use as herbicides” (FMC CORPORATION, priority 2015, dated 2024).
# Assays:
# Format in all cases: in vivo
# [1] = tested on: Kochia (Kochia scoparia); experiment: Test A preemergence; settings: Preemergence
# Summary of the method: (§1)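 Preemergence soil spray on seeded pots or post-emergence spray on 1–2 leaf plants, in loam–sand blend. Greenhouse ~10 d. Visual rating 0–100 against untreated plants.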
# [2] = tested on: barnyardgrass (Echinochloa crus-galli); experiment: Test A preemergence; settings: Preemergence
# Summary of the method: as §1
# [3] = tested on: giant foxtail (Setaria faberii); experiment: Test A preemergence; settings: Preemergence
# Summary of the method: as §1
# [4] = tested on: pigweed (Amaranthus retroflexus); experiment: Test A preemergence; settings: Preemergence
# [5] = tested on: ragweed (common ragweed, Ambrosia elatior); experiment: Test A preemergence; settings: Preemergence
# Summary of the method: as §1
# [6] = tested on: ryegrass, Italian (Italian ryegrass, Lolium multiflorum); experiment: Test A preemergence; settings: Preemergence
# Summary of the method: as §1
# [7] = tested on: Galium (catchweed bedstraw, Galium aparine); experiment: Test A postemergence
# Summary of the method: as §1
# [8] = tested on: Kochia (Kochia scoparia); experiment: Test A postemergence
# Summary of the method: as §1
# [9] = tested on: barnyardgrass (Echinochloa crus-galli); experiment: Test A postemergence
# Summary of the method: as §1
# [10] = tested on: blackgrass (Alopecurus myosuroides); experiment: Test A postemergence
# Summary of the method: as §1
# [11] = tested on: corn (Zea mays); experiment: Test A postemergence
# Summary of the method: as §1
# [12] = tested on: giant foxtail (Setaria faberii); experiment: Test A postemergence
# Summary of the method: as §1
# [13] = tested on: pigweed (Amaranthus retroflexus); experiment: Test A postemergence
# Summary of the method: as §1
# [14] = tested on: ragweed (common ragweed, Ambrosia elatior); experiment: Test A postemergence
# Summary of the method: as §1
# [15] = tested on: ryegrass, Italian (Italian ryegrass, Lolium multiflorum); experiment: Test A postemergence
# Summary of the method: as §1
# [16] = tested on: wheat (Triticum aestivum); experiment: Test A postemergence
# Summary of the method: as §1
# [17] = tested on: barnyardgrass (Echinochloa crus-galli); experiment: Test B flooded paddy test; settings: Flood, 250 g ai/ha; 0 to 100 scale where 0 is no effect and 100 is complete control; 13 to 15 d
# Summary of the method: (§2)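 Percent control, visually estimated after 13–15 d in the greenhouse on a 0–100 basis, compares treated pots with untreated ones; compound was put into paddy water 3 cm above the soil when plants had two leaves.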
# [18] = tested on: ducksalad (Heteranthera limosa); experiment: Test B flooded paddy test; settings: Flood, 250 g ai/ha; 0 to 100 scale where 0 is no effect and 100 is complete control; 13 to 15 d
# Summary of the method: as §2
# [19] = tested on: rice (Oryra sativa); experiment: Test B flooded paddy test; settings: Flood, 250 g ai/ha; 0 to 100 scale where 0 is no effect and 100 is complete control; 13 to 15 d
# Summary of the method: as §2
# [20] = tested on: sedge, umbrella (small-flower umbrella sedge, Cyperus difformis); experiment: Test B flooded paddy test; settings: Flood, 250 g ai/ha; 0 to 100 scale where 0 is no effect and 100 is complete control; 13 to 15 d
# Summary of the method: as §2
# [21] = 125 g ai/ha, visual injury after approximately 10 d, 0 to 100 scale where 0 is no effect and 100 is complete control
# [22] = 500 g ai/ha, visual injury approx. 10 d
# [23] = 125 g ai/ha, postemergence, visual rating after approx. 10 d, 0 to 100 scale (0 no effect, 100 complete control)
# [24] = Postemergence, 500 g ai/ha, 0 to 100 scale where 0 is no effect and 100 is complete control
smiles,measurement,setting,value
CC(C)Oc1cccc(C2CNC(=O)C2C(=O)Nc2ccccc2F)c1 (stereo not drawn) [Compound 552],"Plant response rating, Kochia",[1]; [21],0
same,"Kochia plant response rating (0 to 100 scale, 0 is no effect, 100 is complete control)",[1]; [22],70
same,"Plant response rating, Barnyardgrass",[2]; [21],90
same,"Barnyardgrass plant response rating (0 to 100 scale, 0 is no effect, 100 is complete control)",[2]; [22],90
same,"Plant response rating, Foxtail, Giant",[3]; [21],90
same,"Foxtail, Giant plant response rating (0 to 100 scale, 0 is no effect, 100 is complete control)",[3]; [22],90
same,"Plant response rating, Pigweed",[4]; [21],0
same,"Pigweed plant response rating (0 to 100 scale, 0 is no effect, 100 is complete control)",[4]; [22],0
same,"Plant response rating, Ragweed",[5]; [21],0
same,"Ragweed plant response rating (0 to 100 scale, 0 is no effect, 100 is complete control)",[5]; [22],60
same,"Plant response rating, Ryegrass, Italian",[6]; [21],20
same,"Ryegrass, Italian plant response rating (0 to 100 scale, 0 is no effect, 100 is complete control)",[6]; [22],40
same,"Plant response rating, Galium",[7]; [23],40
same,"Plant response rating, Galium",[7]; [24],60
same,"Plant response rating, Kochia",[8]; [23],0
same,"Plant response rating, Kochia",[8]; [24],30
same,"Plant response rating, Barnyardgrass",[9]; [23],80
same,"Plant response rating, Barnyardgrass",[9]; [24],90
same,"Plant response rating, Blackgrass",[10]; [23],30
same,"Plant response rating, Blackgrass",[10]; [24],70
same,"Plant response rating, Corn",[11]; [23],20
same,"Plant response rating, Corn",[11]; [24],50
same,"Plant response rating, Foxtail, Giant",[12]; [23],70
same,"Plant response rating, Foxtail, Giant",[12]; [24],80
same,"Plant response rating, Pigweed",[13]; [23],0
same,"Plant response rating, Pigweed",[13]; [24],0
same,"Plant response rating, Ragweed",[14]; [23],0
same,"Plant response rating, Ragweed",[14]; [24],20
same,"Plant response rating, Ryegrass, Italian",[15]; [23],30
same,"Plant response rating, Ryegrass, Italian",[15]; [24],50
same,"Plant response rating, Wheat",[16]; [23],0
same,"Plant response rating, Wheat",[16]; [24],40
same,"Plant response rating, Barnyardgrass",[17],60
same,"Plant response rating, Ducksalad",[18],100
same,"Plant response rating, Rice",[19],10
same,"Plant response rating, Sedge, Umbrella",[20],0
